One assay relates to TNF-α. As to the kind of experiment: Human Whole Blood LPS-induced TNF-α assay. It counts as cell-based. The method, then: The ability of compounds to inhibit LPS-induced-TNF-α production by human whole blood was measured essentially as described below for the LPS-induced TNF-α assay in human PBMC, except that freshly drawn whole blood was used instead of PBMC.
Lipopolysaccharide (LPS) is an endotoxin produced by gram-negative bacteria such as E. coli which induces production of many pro-inflammatory cytokines, including TNF-α. In peripheral blood mononuclear cells (PBMC), the TNF-α produced in response to LPS is derived from monocytes, which comprise approximately 5-20% of the total PBMC. Compounds were tested for the ability to inhibit LPS-induced TNF-α production from human PBMC as previously described (Muller et al., 1996, J. Med. Chem., 39:3238). PBMC from normal donors were obtained by Ficoll Hypaque (Pharmacia, Piscataway, NJ, USA) density centrifugation. Cells were cultured in RPMI (Life Technologies, Grand Island, NY, USA) supplemented with 10% AB± human serum (Gemini Bio-products, Woodland, CA, USA), 2 mM L-glutamine, 100 U/ml penicillin, and 100 µg/ml streptomycin (Life Technologies).
PBMC (2 x 10^5 cells) were plated in 96-well flat-bottom Costar tissue culture plates (Coming, NY, USA) in triplicate. Cells were stimulated with LPS (Sigma, St. Louis, MO, USA) at 100 ng/ml in the absence or presence of compounds. […]

Another assay relates to serum TNF-α. The assay is described as follows: Mouse LPS-induced serum TNF-α inhibition. It counts as in vivo. As to conditions: po, read-out: Mouse LPS-induced serum TNF-α inhibition (ED50, mg/kg, p.o.). As to the method: Compounds were tested in this animal model according to previously described methods (Corral et al., 1996, Mol. Med., 2:506-515). Mouse LPS-induced serum TNF-α inhibition (ED50, mg/kg, p.o.) = 0.05 for Compound A.

A further assay relates to IL-8. The assay is described as follows: Zymosan-induced IL-8 production in human neutrophils. It counts as cell-based. As to conditions: Neutrophil. As to the method:
Zymosan A, or the heat-killed yeast Saccharomyces cerevisiae, binds to the adhesion molecule Mac-1 on the neutrophil surface and triggers phagocytosis, cell activation and IL-8 production. Zymosan-induced IL-8 production was measured as previously described (Au et al., 1998, Brit. J. Pharm., 123:1260-1266) with the following modifications. Human neutrophils were purified as described above, plated in 96-well tissue culture plates at 3x10^5 cells/well in complete medium, treated with compounds at 10, 2, 0.4, 0.08, 0.016, 0.0032, 0.00064, and 0 µM in duplicate in a final DMSO concentration of 0.1% for 1 hour at 37°C 5% CO2. Neutrophils were then stimulated with unopsonized, boiled Zymosan A (Sigma) at 2.5 x 10^5 particles/well for 18 hours. Supernatants were harvested and tested for IL-8 by ELISA (R&D Systems).

For assay [1], the system named is LPS-induced pulmonary neutrophilia. The assay is described as follows: LPS-induced lung neutrophilia ferret model. It is filed as in vivo, ferrets (Mustela Pulorius Euro). To be noted: Mustela putorius, po; conscious ferret, p.o.; read-out: Inhibition of LPS-induced neutrophilia (ED50 mg/kg). From the text: The conscious ferret model has been used to investigate anti-inflammatory, emetic and behavioral effects of PDE4 inhibitors when administered by the oral (p.o.) route. From these experiments, a therapeutic index (TI) for each PDE4 inhibitor may be determined. The TI has been calculated by dividing the threshold dose for causing emetic episodes and behavioral changes by the anti-inflammatory dose (dose that causes 50% inhibition of the LPS-induced neutrophilia).
Male ferrets (Mustela Pulorius Euro, weighing 1 - 2 kg). Ferrets were supplied either by Bury Green Farm or Misay Consultancy. Following transport, the animals were allowed to acclimatize in the holding rooms for a period of not less than seven days. The diet comprised SDS diet C pelleted food given ad lib with Whiskers™ cat food given three times per week. Water was pasteurized animal grade drinking water and was changed daily. […]
Thirty minutes after p.o. dosing with compound or vehicle control, the ferrets were placed into sealed Perspex containers and exposed to an aerosol of LPS (100 µg/ml) for 10 minutes. […] Observation continued for a period of at least 2.5 hours post p.o. dosing and emetic episodes and behavioral changes were recorded. […]
The bronchoalveolar lavage (BAL) samples were centrifuged at 1,500 rpm for 5 minutes. […] From this, the total number of neutrophils in the BAL was determined. […]

The term IC50 denotes the concentration that inhibits the measured activity by half. Lower therefore signals greater potency in that assay. As to `CCOc1cc(C(CS(C)(=O)=O)N2C(=O)c3cccc(NC(C)=O)c3C2=O)ccc1OC` (single isomer, unassigned; (+)) [Compound A, (+)-2-[1-(3-ethoxy-4-methoxyphenyl)-2-methylsulfonylethyl]-4-acetylaminoisoindoline-1,3-dione], the results for the concentration for half-maximal inhibition (IC50) with TNF-α and in the assay with IL-8 were 0.294 µM and 0.094 µM, respectively. Besides, the values for the ED50 (in the assay on serum TNF-α; in assay [1]) were 0.05 mg/kg and 0.8 mg/kg, respectively.

The values above are taken from patent EP2276483B1, “SOLID FORMS COMPRISING (+)-2-[1-(3-ETHOXY-4-METHOXYPHENYL)-2-METHYLSULFONYLETHYL]-4-ACETYLAMINOISOINDOLINE-1,3-DIONE, COMPOSITIONS THEREOF, AND USES THEREOF” (CELGENE CORPORATION, priority 2008, dated 2009).
